Legend:
Format in all cases: cell-based, human
Caov-3 cell line [1] = assay: LC3 nanoplasmonic biosensor analysis of cell lysates of Caov-3 cells
Description: Each cell line was cultured in a 10-cm dish under appropriate conditions before cell lysate preparation. […] […] […] Pellet cells were then washed with ice-cold PBS and incubated for 15 minutes with RIPA lysis buffer and inhibitors (Halt™ Protease and Phosphatase Inhibitor Cocktail). Thereafter, sonication and centrifugation were repeated to afford a cell lysate at a final concentration of 1.6×10^6 cells/mL.
(§1) Cleanly washed microscope coverslip slides were pretreated with 10% (v/v) APTES for 1 hour, and then drop-coated with 10 μL of a diluted immuno-AuNR solution (OD: about 0.05). A closed water-bath microfluidic detection chamber including two coverslip slides with a gasket interposed therebetween was assembled and securely fixed for sample incubation and biosensing (FIG. 1). The detection chamber was then mounted on an automated dark-field microscope stage and a syringe pump was connected to the inlet of the detection chamber. Unbound immunogold on the surface of the coverslip slides was removed using ultrapure water at a flow rate of 100 μL min^−1 for 1 hour, followed by treatment with 1 mL of a 0.2 M ethanolamine solution for 30 minutes to inactivate unreacted functional groups. Thereafter, at least 10 μL of LC3 sample and PEBP1 (2 μg mL^−1) were injected into the chamber and incubated for 4 hours and 30 minutes, respectively, and contaminants were washed with ultrapure water before biosensing.
(§2) The LSPR wavelength of each immunogold was recorded three times throughout the experiment: 1) before LC3 sample injection, 2) after LC3 sample incubation, and 3) after PEBP1 treatment. The LSPR wavelength of each AuNR stabilized on the bottom coverslip slide was rapidly recorded with an imaging microscope system (SERA, NOST, Seoul, Korea). An automated surface scanning and imaging module with a high-resolution EMCCD detector (888, iXon Life, Oxford Instrument, Belfast, Northern Ireland) was connected to large-area (130×130 μm) computer-assisted high-speed LSPR mapping through a single click. The LSPR mapping results associated with the dark-field images were visualized on a monitor with RAON computer software (NOST, Seoul, Korea), and the plasmon shift (Δλmax) of each LSPR wavelength was calculated using OriginPro 9 software.
Then, the LSPR peak shift of the Caov-3 cell line treated with bafilomycin A or not treated therewith was represented in the form of a cumulative bar graph, as shown in FIG. 13. Here, the regular and hatched boxes represent the measured first and second LSPR shifts, respectively, and error bars correspond to the standard errors measured in 60 immuno-AuNRs.

Caov-3 cell line [2] = assay: LC3 Western blotting and LC3 ELISA of Caov-3 cell lysates; conditions: Baf A for 20 minutes and 24 hours, FIG. 14
Description: (§3) Each cell line was cultured in a 10-cm dish under appropriate conditions before cell lysate preparation. […] Caov-3 cells were treated with bafilomycin A1 (1 μM) and allowed to starve for 24 to 48 hours before adding a cytosolic LC3 removal reagent. […] Pellet cells were then washed with ice-cold PBS and incubated for 15 minutes with RIPA lysis buffer and inhibitors (Halt™ Protease and Phosphatase Inhibitor Cocktail). Thereafter, sonication and centrifugation were repeated to afford a cell lysate at a final concentration of 1.6×10^6 cells/mL.
The cell lysate prepared in Experimental Example 2 was quantified with a BCA assay kit (Thermo Fisher Scientific), and 40 μg thereof was loaded into each well. SDS-PAGE was conducted under conditions of 70 minutes or more, 15% gel, and 90 V. Primary (LC3B antibody, Cell Signaling) and secondary (goat anti-mouse, GenDEPOT) antibodies to LC3 were diluted 1:1000 and 1:5000, respectively, and respective antibodies to actin (anti beta-actin, AbFrontier) were also diluted 1:1000 and 1:10000. Other specific conditions were the same as the general protocol for Western blotting.

MDA-MB-231 [3] = assay: LC3 nanoplasmonic biosensor analysis of cell lysates of MDA-MB-231 cells; conditions: 12 hours
MDA-MB-231 [4] = assay: Cell viability (EZ-Cytox); conditions: Baf A 50 nM or Tz 20 μg mL^−1; 6, 24 and 48 hours
Description: (§4) Each cell line was preincubated in 96 wells at 5×10^4 cells per well in a CO2 incubator (37° C., 5% CO2, 2-24 hours). […] Each well was treated with 10 μL of EZ-Cytox (DoGen Bio, Korea), followed by further incubation for at least 1 hour. Thereafter, UV-vis absorbance at 450 nm was recorded.

BT-474 [5] = assay: Cell viability (EZ-Cytox); conditions: Baf A 50 nM or Tz 20 μg mL^−1; 6, 24 and 48 hours
Description: as §4

BT-474 [6] = assay: LC3 nanoplasmonic biosensor analysis of cell lysates of BT-474 cells; conditions: 12 hours
Description: as §3
as §1, with “Thereafter, at least 10 μL of LC3 sample and PEBP1 (2 μg mL^−1) were injected into the chamber and incubated for 4 hours and 30 minutes, respectively, and contaminants were washed with ultrapure water before biosensing.” left out
as §2, with “An automated surface scanning and imaging module with a high-resolution EMCCD detector (888, iXon Life, Oxford Instrument, Belfast, Northern Ireland) was connected to large-area (130×130 μm) computer-assisted high-speed LSPR mapping through a single click.” left out

[7] = before the additional treatment (read as 50 nM Baf A alone)

With CO/C1=C\C(C)=C\[C@@H](C)[C@@H](O)[C@@H](C)C/C(C)=C/C=C/[C@H](OC)[C@@H]([C@@H](C)[C@@H](O)[C@H](C)[C@@]2(O)C[C@@H](O)[C@H](C)[C@@H](C(C)C)O2)OC1=O [Baf A, bafilomycin A] the “LC3-II composition (Equation 1)” value (Caov-3 cell line [1]; Baf A for 20 minutes) was 6.78%, the “LC3-II composition (Equation 1)” value (Caov-3 cell line [1]; Baf A for 24 hours) was 78.8% and the “first LSPR peak shift” value (Caov-3 cell line [1]; Baf A for 24 hours) was 10.2±0.25 nm. The “second LSPR peak shift” value (Caov-3 cell line [1]; Baf A for 24 hours, after PEBP1) was 1.53±0.29 nm, the “LC3 expression by Western blotting and ELISA” value (Caov-3 cell line [2]) was “LC3-II accumulation was induced” and the “change of first-step LSPR Δλmax and LC3-II ratio” value (MDA-MB-231 [3]; 50 nM Baf A, versus no Baf A) was “greater first-step LSPR Δλmax and an increased LC3-II ratio”. For the same compound, the “first-step LSPR Δλmax” value (MDA-MB-231 [3]; [7]) was 10.40±0.35 nm, the “cell viability over time” value (MDA-MB-231 [4]) was “gradual cell death” and the “cell viability over time” value (BT-474 [5]) was “gradual cell death”. For the same compound, the “change of first-step LSPR Δλmax and LC3-II ratio” value (BT-474 [6]; 50 nM Baf A, versus no Baf A) was “greater first-step LSPR Δλmax and an increased LC3-II ratio”, the “LC3-II ratio (Equation 1)” value (BT-474 [6]; [7]) was 68.1% and the “first-step LSPR Δλmax” value (BT-474 [6]; [7]) was 7.23±0.33 nm.
